Structures can show the parent of a compound that is named as a salt.
Tests used:
[1] = target: T1, human SERT (HEK293 membranes) (Homo sapiens, UniProt P31645); assay: Human SERT 3H-citalopram binding; details: HEK293 membranes expressing human SERT, rt 1 h
T1 construct: expressed in transfected cells; host or cells: HEK293
Method: Homogenized HEK293 (Human Embryonic Kidney) membranes expressing the human SERT were incubated with ^3H-citalopram (SERT) at rt for 1 h in 50 mM Tris, 120 mM NaCl, 5 mM KCl (pH 7.4). Nonspecific binding was determined in the presence of 10 μM fluoxetine for the SERT. The membranes were washed and the radioactivity was counted as above. Calculations for Ki at the SERT were based on a Kd value for ^3H-citalopram and a ligand concentration of 3.1 nM.

[2] = target: T2, cloned human H3 receptors, stably expressed in SK-N-MC cells (Homo sapiens, UniProt Q9Y5N1); assay: H3 receptor binding
T2 construct: expressed in transfected cells
Method: Binding of compounds to the cloned human H3 receptors, stably expressed in SK-N-MC cells, was performed as described by Barbier, A. J. et al. (Br. J. Pharmacol. 2004, 143(5), 649-661).

[3] = target: T3, Rat brain SERT (Rattus norvegicus, UniProt P31652); assay: Rat brain SERT [3H]-citalopram binding; details: rat brain membranes, 0.6 nM [3H]-Citalopram, 60 min at 25° C.
T3 construct: A rat brain without cerebellum (Zivic Laboratories, Inc.-Pittsburgh, Pa.) was homogenized; tissue Zivic Laboratories, Inc; host or cells: rat brain without cerebellum, membrane preparation
Method: A rat brain without cerebellum (Zivic Laboratories, Inc.-Pittsburgh, Pa.) was homogenized in a 52.6 mM Tris pH 8/126.4 mM NaCl/5.26 mM KCl mixture and centrifuged at 1,000 rpm for 5 min. The supernatant was removed and re-centrifuged at 15,000 rpm for 30 min. Pellets were re-homogenized in a 52.6 mM Tris pH8/126.4 mM NaCl/5.26 mM KCl mixture. Membranes were incubated with 0.6 nM [^3H]-Citalopram plus/minus test compounds for 60 min at 25° C. and harvested by rapid filtration over GF/C glass fiber filters (pretreated with 0.3% polyethylenimine) followed by four washes with ice-cold buffer. Nonspecific binding was defined in the presence of 100 μM fluoxetine. IC50 values were determined by a single site curve-fitting program (GraphPad, San Diego, Calif.) and converted to Ki values based on a [^3H]-Citalopram Kd of 0.6 nM and a ligand concentration of 0.6 nM.

T1 sequence (P31645 whole entry): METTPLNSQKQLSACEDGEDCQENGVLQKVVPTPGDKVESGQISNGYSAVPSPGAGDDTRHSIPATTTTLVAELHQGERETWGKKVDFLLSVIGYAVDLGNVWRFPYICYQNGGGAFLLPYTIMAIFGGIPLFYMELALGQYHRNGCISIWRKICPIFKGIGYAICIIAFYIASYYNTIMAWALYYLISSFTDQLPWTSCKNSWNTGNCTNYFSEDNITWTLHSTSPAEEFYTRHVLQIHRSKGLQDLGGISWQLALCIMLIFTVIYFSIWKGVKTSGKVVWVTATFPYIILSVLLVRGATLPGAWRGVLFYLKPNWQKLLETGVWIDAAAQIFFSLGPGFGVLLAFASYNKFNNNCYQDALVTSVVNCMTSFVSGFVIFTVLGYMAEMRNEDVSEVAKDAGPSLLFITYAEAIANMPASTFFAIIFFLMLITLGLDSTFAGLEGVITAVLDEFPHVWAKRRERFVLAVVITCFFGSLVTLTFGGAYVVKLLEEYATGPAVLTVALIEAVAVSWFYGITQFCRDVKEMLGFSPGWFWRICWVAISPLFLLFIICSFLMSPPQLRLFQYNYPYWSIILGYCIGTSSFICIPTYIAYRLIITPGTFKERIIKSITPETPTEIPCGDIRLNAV
T2 sequence (Q9Y5N1 whole entry): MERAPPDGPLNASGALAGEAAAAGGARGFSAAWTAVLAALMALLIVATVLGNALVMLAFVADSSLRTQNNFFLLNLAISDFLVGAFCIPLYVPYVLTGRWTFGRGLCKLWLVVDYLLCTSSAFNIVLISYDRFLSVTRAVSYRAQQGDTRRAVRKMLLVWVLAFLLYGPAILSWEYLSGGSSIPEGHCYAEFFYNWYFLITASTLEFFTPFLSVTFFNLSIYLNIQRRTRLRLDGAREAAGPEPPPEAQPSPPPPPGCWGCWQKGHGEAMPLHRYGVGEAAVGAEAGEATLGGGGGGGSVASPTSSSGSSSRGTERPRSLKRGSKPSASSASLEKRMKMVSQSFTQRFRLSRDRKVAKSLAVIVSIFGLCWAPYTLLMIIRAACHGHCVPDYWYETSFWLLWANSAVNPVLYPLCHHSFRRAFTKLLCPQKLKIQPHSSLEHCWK
T3 sequence (P31652 whole entry): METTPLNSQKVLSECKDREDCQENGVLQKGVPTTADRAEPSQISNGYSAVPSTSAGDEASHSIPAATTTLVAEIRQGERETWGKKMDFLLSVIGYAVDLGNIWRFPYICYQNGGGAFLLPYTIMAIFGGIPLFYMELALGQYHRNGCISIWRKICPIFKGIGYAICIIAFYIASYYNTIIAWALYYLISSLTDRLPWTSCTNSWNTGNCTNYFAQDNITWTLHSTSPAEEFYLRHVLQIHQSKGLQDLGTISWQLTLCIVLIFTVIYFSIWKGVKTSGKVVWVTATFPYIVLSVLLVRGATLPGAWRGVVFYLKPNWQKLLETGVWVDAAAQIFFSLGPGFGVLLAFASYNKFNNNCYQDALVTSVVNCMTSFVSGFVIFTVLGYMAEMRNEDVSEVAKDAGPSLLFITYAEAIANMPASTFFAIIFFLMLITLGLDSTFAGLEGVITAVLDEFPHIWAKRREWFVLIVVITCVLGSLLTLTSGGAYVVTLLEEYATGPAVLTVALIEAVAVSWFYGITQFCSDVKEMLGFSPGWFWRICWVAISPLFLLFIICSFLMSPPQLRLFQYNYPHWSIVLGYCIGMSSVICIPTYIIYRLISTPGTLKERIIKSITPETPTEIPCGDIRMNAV

SMILES	Ki [1] [nM]	Ki [2] [nM]	Ki [3] [nM]
CSc1ccc(C2CN(C)Cc3cc(Oc4ccc(CN5CCC(F)CC5)cn4)ccc32)cc1 (stereo not shown) [Example 12, 7-[5-(4-Fluoro-piperidin-1-ylmethyl)-pyridin-2-yloxy]-2-methyl-4-(4-methylsulfanyl-phenyl)-1,2,3,4-tetrahydro-isoquinoline]	6.5	110	14.3
CSc1ccc(C2CN(C)Cc3cc(Oc4cc(CN5CCCCC5)ccn4)ccc32)cc1 (stereo not shown) [Example 5, 2-Methyl-4-(4-methylsulfanyl-phenyl)-7-(4-piperidin-1-ylmethyl-pyridin-2-yloxy)-1,2,3,4-tetrahydro-isoquinoline]	2.4	34.3	8.7
CSc1ccc(C2CN(C)Cc3cc(Oc4ncc(CN5CCCCC5)s4)ccc32)cc1 (stereo not shown) [Example 13, 2-Methyl-4-(4-methylsulfanyl-phenyl)-7-(5-piperidin-1-ylmethyl-thiazol-2-yloxy)-1,2,3,4-tetrahydro-isoquinoline]	3.2	20.7	4
CSc1ccc(C2CN(C)Cc3cc(Oc4cccc(CN5CCCCC5)n4)ccc32)cc1 (stereo not shown) [Example 2, 2-Methyl-4-(4-methylsulfanyl-phenyl)-7-(6-piperidin-1-ylmethyl-pyridin-2-yloxy)-1,2,3,4-tetrahydro-isoquinoline Trifluoroacetic Acid Salt]	22	51	11.7
CSc1ccc(C2CN(C)Cc3cc(Oc4ccc(CN5CCCCC5)cn4)ccc32)cc1 (stereo not shown) [Example 7, 2-Methyl-4-(4-methylsulfanyl-phenyl)-7-(5-piperidin-1-ylmethyl-pyridin-2-yloxy)-1,2,3,4-tetrahydro-isoquinoline]	2.3	8.2	4.5
CSc1ccc(C2CN(C)Cc3cc(Oc4nc(CN5CCCCC5)cs4)ccc32)cc1 (stereo not shown) [Example 6, 2-Methyl-4-(4-methylsulfanyl-phenyl)-7-(4-piperidin-1-ylmethyl-thiazol-2-yloxy)-1,2,3,4-tetrahydro-isoquinoline]	4.3	20.7	5.2
CSc1ccc(C2CN(C)Cc3cc(Oc4cccc(CN5CCCCC5)c4)ccc32)cc1 (stereo not shown) [Example 1A, 2-Methyl-4-(4-methylsulfanyl-phenyl)-7-(3-piperidin-1-ylmethyl-phenoxy)-1,2,3,4-tetrahydro-isoquinoline trifluoroacetic acid salt]	17.7	18	11.7
CSc1ccc(C2CN(C)Cc3cc(Oc4ccc(CN5CCCCC5)nc4)ccc32)cc1 (stereo not shown) [Example 8, 2-Methyl-4-(4-methylsulfanyl-phenyl)-7-(6-piperidin-1-ylmethyl-pyridin-3-yloxy)-1,2,3,4-tetrahydro-isoquinoline]	8	24.3	7.5
CSc1ccc(C2CN(C)Cc3cc(Oc4ccnc(CN5CCCCC5)c4)ccc32)cc1 (stereo not shown) [Example 3A, 2-2-Methyl-4-(4-methylsulfanyl-phenyl)-7-(2-piperidin-1-ylmethyl-pyridin-4-yloxy)-1,2,3,4-tetrahydro-isoquinoline Trifluoroacetic Acid Salt]	10.4	323	25.7
CSc1ccc(C2CN(C)Cc3cccc(Oc4ccnc(CN5CCCCC5)c4)c32)cc1 (stereo not shown) [Example 3B, 2-Methyl-4-(4-methylsulfanyl-phenyl)-5-(2-piperidin-1-ylmethyl-pyridin-4-yloxy)-1,2,3,4-tetrahydro-isoquinoline Trifluoroacetic Acid Salt]	157	265	182
CSc1ccc(C2CN(C)Cc3cc(Oc4ccc(CN5CCCCC5)cc4)ccc32)cc1 (stereo not shown) [Example 9, 2-Methyl-4-(4-methylsulfanyl-phenyl)-7-(4-piperidin-1-ylmethyl-phenoxy)-1,2,3,4-tetrahydro-isoquinoline]	3.8	22.7	4.3
CSc1ccc(C2CN(C)Cc3cccc(Oc4cccc(CN5CCCCC5)c4)c32)cc1 (stereo not shown) [Example 1B, 2-Methyl-4-(4-methylsulfanyl-phenyl)-5-(3-piperidin-1-ylmethyl-phenoxy)-1,2,3,4-tetrahydro-isoquinoline Trifluoroacetic Acid Salt]	616	253	403
CSc1ccc(C2CN(C)Cc3cc(Oc4ccc(CN5CCOCC5)cn4)ccc32)cc1 (stereo not shown) [Example 10, 2-Methyl-4-(4-methylsulfanyl-phenyl)-7-(5-morpholin-4-ylmethyl-pyridin-2-yloxy)-1,2,3,4-tetrahydro-isoquinoline]	7.9	260	11
CSc1ccc(C2CN(C)Cc3cccc(Oc4cncc(CN5CCCCC5)c4)c32)cc1 (stereo not shown) [Example 4B, 2-Methyl-4-(4-methylsulfanyl-phenyl)-5-(5-piperidin-1-ylmethyl-pyridin-3-yloxy)-1,2,3,4-tetrahydro-isoquinoline Trifluoroacetic Acid Salt]	262	511	174
CSc1ccc(C2CN(C)Cc3cc(Oc4nc(CN5CCOCC5)cs4)ccc32)cc1 (stereo not shown) [Example 11, 2-Methyl-4-(4-methylsulfanyl-phenyl)-7-(4-morpholin-4-ylmethyl-thiazol-2-yloxy)-1,2,3,4-tetrahydro-isoquinoline]	–	201	–

From US7846930B2, “Diaryl-substituted tetrahydroisoquinolines as histamine H3 receptor and serotonin transporter modulators” (Janssen Pharmaceutica NV, priority 2007, dated 2010)
